The test system of assay [1] is mice. Conditions: mice (McAllister, 1990); cited from earlier work.
Assay [2] deals with individually housed mice. To be noted: cited from earlier work.
Assay [3] concerns C57BL/6 mice. To be noted: chronic exposure (i.c.v.), low baseline aggressiveness (Lumley, Soc. Neurosci); cited from earlier work.
The test system of assay [4] is SJL mice. Put plainly: social interaction test with a non-aggressive conspecific in long-term individually housed hyperaggressive mice (isolation-induced aggression). To be noted: for mice that attacked: vehicle 8 of 8. Type of assay: in vivo. From the text: It is well-established that housing in isolation for significant periods of time will enhance the natural tendency of cage resident mice to attack an “intruder” mouse placed in their home cage. The isolation model in mice is the most appropriate model for screening drugs for anti-aggression potential. We tested whether acute exposure to the NAALADase inhibitor [2-[(pentafluorophenylmethyl) hydroxyphosphinyl]methyl-pentanedioic acid, administered prior to a social interaction test, would inhibit aggressive behavior in SJL mice that had been individually housed for eight months. [2-[(pentafluorophenylmethyl) hydroxyphosphinyl]methyl-pentanedioic acid (30 mg/kg, i.p.) was administered 30 minutes prior to a social interaction test to pharmacologically naive male mice which had been selected and behaviorally shaped to be hyperaggressive, and had consistently shown markedly aggressive behaviors in prior interactions with intruder mice. Administration of [2-[(pentafluorophenylmethyl) hydroxyphosphinyl]methyl-pentanedioic acid (30 mg/kg, i.p.) inhibited aggression, indicated by greater latencies to display tail-rattling, attack and bite, and fewer tail-rattling responses to a non-aggressive conspecific, relative to vehicle. In addition, fewer mice that received [2-[(pentafluorophenylmethyl) hydroxyphosphinyl]methyl-pentanedioic acid (30 mg/kg) initiated attack, relative to those that received vehicle.
We hypothesized that similar to the effects of NMDA antagonists, NAALADase inhibition and therefore increased NAAG, would inhibit aggressiveness under conditions of high basal levels of aggressiveness. We administered the NAALADase inhibitor [2-[(pentafluorophenylmethyl) hydroxyphosphinyl]methyl-pentanedioic acid prior to a social interaction test in a novel cage and measured behavioral responses to a non-aggressive conspecific; a novel cage was used to lower the levels of aggressiveness. The paradigm used was adapted from File (reviewed in Crawley, 2000).
Principles of laboratory animal care (NIH publication No. 85-23, revised 1985) were followed. […] In addition, these mice had been used to socially defeat mice that were used as subjects in numerous other studies. These highly aggressive SJL had no previous drug exposure. At the end of 8 months of training, subjects weighed 30-37 grams and had attack latencies of less than 30 sec when exposed to an obx. During the social interaction test, two C57BL/6 male mice (30-33 g; Jackson Laboratories), which were screened for non-aggressiveness and unfamiliar to the subjects, were used as stimulus mice.
[2-[(pentafluorophenylmethyl) hydroxyphosphinyl]methyl-pentanedioic acid, MW 390.2 (3 mg/kg or 30 mg/kg in 50 mM Hepes in 0.9% saline; pH 7.2; Guilford Pharmaceuticals) or vehicle (50 mM Hepes in 0.9% saline; pH 7.2) was administered intraperitoneally (i.p.; 10 ml/kg) 30 min. prior to a 4 min. social interaction test. Subject mice were placed in a novel cage (48×27×20 cm) along with a non-aggressive male conspecific and tested under low illumination (red lights) during the dark phase of their cycle. Methods for various social interaction tests reviewed in Crawley et al. (2000). Tests were videotaped and behaviors were scored using a computer program (Hindsight, Scott Weiss, UK), by two observers blind to the treatment. Behavioral measures included 1) measures of aggressiveness or threat: attack, bite, chase or follow, grooming conspecific, tail rattling 2) measures of exploratory and locomotor activity: walking, rearing, digging, 3) measures of defensiveness: defensive posture (crouch, upright) and flight. Details on behavioral measurements may be found in Grant and McIntosh, 1963; Lumley et al., 2000; Crawley, 2000.
One-way analysis of variance was performed for each behavioral measure with drug dose as the independent factor. Data were further probed using Dunnet=s test.

`C[C@]12N[C@H](Cc3ccccc31)c1ccccc12` [dizocilpine]: the aggression result in assay [1] is given as “increased aggression”.

Turning to `c1ccc(C2(N3CCCCC3)CCCCC2)cc1` [PCP, phencyclidine], in assay [2] (individually housed mice (Wilmot et al., 1987)), the aggressiveness entry is reported as “increased aggressiveness”. For the same molecule, the “number of mice that displayed attack” value in assay [2] (individually housed mice) is “reduced the number of mice that displayed attack”.

With `O=C(O)CCC(CP(=O)(O)O)C(=O)O` (stereo not shown) [2-PMPA, 2-(phosphonomethyl)-pentanedioic acid], the aggressiveness result in assay [3] is “increase aggressiveness”.

Regarding `O=C(O)CCC(CP(=O)(O)Cc1c(F)c(F)c(F)c(F)c1F)C(=O)O` (stereo not shown) [[2-[(pentafluorophenylmethyl) hydroxyphosphinyl]methyl-pentanedioic acid], the mice that attacked in assay [4] (3 mg/kg) is reported as 7 of 10; in assay [4] (30 mg/kg), 4 of 9. Besides, in assay [4] (30 mg/kg i.p., 30 min before 4 min test, relative to vehicle, F (2, 26)=2.36), the latency to attack result is on record as “increased latencies”. In assay [4] (30 mg/kg i.p., 30 min before 4 min test, relative to vehicle, F (2, 26)=2.82), the latency to bite result is listed as “increased latencies”. Also, the “latency to display tail-rattling” value in assay [4] (30 mg/kg i.p., 30 min before 4 min test, relative to vehicle, F (2, 26)=7.41) was “increased latencies”. Besides, the “number of tail-rattling responses” value in assay [4] (30 mg/kg, relative to vehicle, F (2, 26)=3.66) is “tended to display fewer tail-rattling responses”. Further, the “percent of mice that attacked the conspecific” value in assay [4] (30 mg/kg, vehicle 100%) is 44%. In addition, the defensive responses result in assay [4] (3 or 30 mg/kg i.p., few mice displayed any) is “no effect”. The number of attacks result in assay [4] (in mice displaying the behavior, 3 or 30 mg/kg i.p., F (2,18)=0.11) is on record as “no effect”. The number of bites entry in assay [4] (in mice displaying the behavior, 3 or 30 mg/kg i.p., F (2, 26)=0.31) is given as “no effect”. Also, the “number of attacks in the 4 of 9 treated mice that attacked” value in assay [4] (relative to vehicle-treated mice, not significant) is listed as “tended to have more attacks”. Also, the “tail rattling responses as stated in the discussion” value in assay [4] (relative to vehicle, dose not stated) was “more tail rattling responses than vehicle”.

The values above are taken from patent publication US20030162694A1, “Novel treatment for pathological aggression” (priority 2002, published 2003).
